For one assay, the system named is FabC4 antibody fragment. As to the kind of experiment: ELISA of synthetic peptides for binding to FabC4. The conditions noted are these: 2.5 μg/well peptide, FabC4 1 ug, 492 nm. Here is the method: Clones A5, A7, C4 and D6, which were able to discriminate the serum of individuals with BC from BBD and NC by Phage-ELISA, were chemically synthesized by GenScript USA Inc. To increase immunogenicity, the peptides were coupled to BSA. Enzyme immunoassays were conducted to assess the ability of FabC4 antibody to recognize these peptides.
(§1) A microtiter plate was sensitized with 2.5 μg/well of each of the peptides diluted in carbonate/bicarbonate buffer (50 mM pH 9.6) and kept for 16 hours at 4° C. After blocking with PBS1X-BSA3% (1 hour at 37° C.) a single wash with PBS1X preceded the addition of FabC4 (1 ug), incubated for 1 hour at 37° C. After washing with PBS1X, anti-HA antibody which was labeled with peroxidase (Roche Applied Science) diluted 1:5000 in PBS-BSA3% for 1 h at 37° C. was added. After washing with PBS1X, the reaction with the OPD SigmaFast® (Sigma-Aldrich) substrate, interrupted with H2SO4 (2N), was analyzed in a spectrophotometer at a length of 492 nm (TP-Reader ThermoPlate).

Assay [1] deals with serum from 150 patients (BC, BBD, NC). As to the kind of experiment: ELISA of synthetic peptides against serum of 150 patients (diagnostic ability). It counts as binding, human. Conditions: serum from 150 patients (50 from each study group). Here is the method: as §1
The same conditions were used to analyze the diagnostic capacity of the peptides against the serum of the 150 patients previously described. Again, ANOVA and Mann Whitney tests were used for comparative purposes between groups with the aid of the GraphPad Prism 7.0 (GraphPad Software Inc.—La Jolla, Calif., USA) software. Values of P<0.05 were considered significant.
For orientation: In an ELISA, binding on a coated surface is turned into a signal by an enzyme label.

For “VMPAAKYSLRVL (listed as Homo sapiens) [pC4, chemically synthesized peptide expressed in phage C4]”, the “absorbance, binding to FabC4 by ELISA” value in the assay on FabC4 antibody fragment is recorded as “highest absorbance”.
On to “VTPCSSFSSFLP (listed as Homo sapiens) [pD6, chemically synthesized peptide of clone D6]”, for which the “reactivity between the samples” value in assay [1] is listed as “differential reactivity between the samples”.
